{
  "source": "patent US20200069644A1",
  "about": "“NOVEL USE OF A FORMYL PEPTIDE RECEPTOR 2/ LIPOXIN A4 RECEPTOR (FPR2/ALX) AGONIST FOR TREATMENT OF HEART FAILURE” (BRISTOL- MYERS SQUIBB COMPANY, priority 2017, published 2020)",
  "format_in_all_cases": "cell-based",
  "key": {"[1]": {"system": "Rat FPR2", "experiment": "cAMP inhibition, rat FPR2 CHO cells", "settings": "CHO cell lines, cAMP"}, "[2]": {"target": "Rat FPR2 (Rattus norvegicus, UniProt A0A8I6AM80)", "sequence (A0A8I6AM80 1-351)": "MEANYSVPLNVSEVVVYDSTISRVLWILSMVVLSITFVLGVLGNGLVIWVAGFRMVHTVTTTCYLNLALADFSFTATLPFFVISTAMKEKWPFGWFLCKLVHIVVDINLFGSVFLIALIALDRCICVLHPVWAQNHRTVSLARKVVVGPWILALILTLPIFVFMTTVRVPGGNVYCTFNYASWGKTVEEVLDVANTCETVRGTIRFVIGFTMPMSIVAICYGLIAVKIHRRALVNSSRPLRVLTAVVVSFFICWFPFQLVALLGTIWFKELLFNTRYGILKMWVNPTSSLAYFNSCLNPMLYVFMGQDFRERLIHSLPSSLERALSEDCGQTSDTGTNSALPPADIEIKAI", "experiment": "cAMP inhibition, rat FPR2 CHO cells", "settings": "Rat FPR2"}, "[3]": {"target": "T1, Human FPR1 (Homo sapiens, UniProt P21462)", "T1 construct": "expressed in transfected cells; host or cells: CHO-A12", "T1 sequence (P21462 1-350)": "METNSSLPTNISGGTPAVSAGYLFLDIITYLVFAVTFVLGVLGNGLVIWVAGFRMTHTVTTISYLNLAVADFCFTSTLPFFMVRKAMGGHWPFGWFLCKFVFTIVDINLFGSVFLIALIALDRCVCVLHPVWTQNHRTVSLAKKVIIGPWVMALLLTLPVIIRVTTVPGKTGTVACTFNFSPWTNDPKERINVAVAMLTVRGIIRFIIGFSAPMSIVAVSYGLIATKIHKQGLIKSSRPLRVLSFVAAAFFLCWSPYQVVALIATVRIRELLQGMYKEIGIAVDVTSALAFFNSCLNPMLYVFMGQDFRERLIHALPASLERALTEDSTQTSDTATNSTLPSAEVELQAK", "experiment": "FPR1 cAMP assay (cAMP inhibition)", "settings": "Human FPR1/CHO-A12", "procedure": "A mixture of forskolin (5 μM final for FPR2 or 10 μM final for FPR1) and IBMX (200 μM final) were added to 384-well Proxiplates (Perkin-Elmer) pre-dotted with test compounds in DMSO (1% final) at final concentrations in the range of 0.1 nM to 10 μM. CHO overexpressing human FPR1 or human FPR2 receptors were cultured in F-12 (Ham's) medium supplemented with 10% qualified FBS, 250 μg/ml zeocin and 300 μg/ml hygromycin (Life Technologies). Reactions were initiated by adding 2,000 human FPR2 cells per well or 4,000 human FPR1 cells per well in Dulbecco's PBS (with calcium and magnesium) (Life Technologies) supplemented with 0.1% BSA (Perkin-Elmer). The reaction mixtures were incubated for 30 min at room temperature. The level of intracellular cAMP was determined using the HTRF HiRange cAMP assay reagent kit (Cisbio) according to manufacturer's instruction. Solutions of cryptate conjugated anti-cAMP and d2 flurorophore-labelled cAMP were made in a supplied lysis buffer separately. […] After a 1 h room temperature incubation, time-resolved fluorescence intensity was measured using the Envision (Perkin-Elmer) at 400 nm excitation and dual emission at 590 nm and 665 nm. […] The potency and activity of Compound 1 to inhibit cAMP production was then determined by fitting to a 4-parametric logistic equation from a plot of cAMP level versus compound concentrations. […]"}, "[4]": {"system": "Mouse peritoneal macrophages", "experiment": "Enhancement of phagocytosis of FITC zymosan", "settings": "Peritoneal macrophage; mouse peritoneal macrophages elicited with 1% Biogel; read-out: EC50, enhancement of phagocytosis of fluorescently labeled zymosan", "procedure": "Enhancement of phagocytosis Macrophages were elicited to the peritoneum of five C57BL6 mice by peritoneal injection of 1 mL of 1% Biogel in PBS (−/−) 4 days prior to harvest. Peritoneal exudates are harvested, combined and then filtered to remove Biogel beads. First, through a 70 um cell strainer followed by successively filtering through two 40 um cell strainers. The exudate is diluted with 1×PBS (−/−) to 50 mL and centrifuged at 300×g for 10 minutes at 4° C. The cell pellet is gently resuspended in 20-30 mL 1×PBS(+/+) and cells are counted using the Nexelcom Cellometer counter. Cell concentration is adjusted to 1,250,000 cells/mL in 1×PBS (+/+). 100 μL (125 k) cells are placed into each well of a 96-well Costar 3904 plate. The plates are centrifuged at 150×g for 30 seconds to promote adherence. […] Fluorescence signal from non-ingested Zymosan particles is quenched with 150 uL ice-cold 1:15 diluted Trypan Blue solution for 2 minutes and then aspirated to remove. Lastly, the plate is read on a SpectraMAX Gemini EM fluorescence plate reader in 150 ul of 1:50 diluted Trypan Blue. Plate Reader Settings=Bottom Read: Excitation 493 nm: Emission 525 nm: Cutoff 515 nm: Automix Off: Calibrate On: PMT=Auto: Column Priority: Reads/Well=20. […]"}},
  "data": [
    {"molecule": "COc1cc(F)c([C@@H]2CNC(=O)[C@H]2NC(=O)Nc2ccccc2)c(F)c1", "note": "[Compound 1, 1-((3S,4R)-4-(2,6-difluoro-4-methoxyphenyl)-2-oxopyrrolidin-3-yl)-3-phenylurea]", "values": [
      {"measurement": "selectivity for rat FPR2 vs. FPR1", "setting": "[1]", "value": 480, "unit": "fold"},
      {"measurement": "EC50", "setting": "[2]", "value": 1.5, "unit": "nM"},
      {"measurement": "EC50", "setting": "[3]", "value": 1250, "unit": "nM"},
      {"measurement": "EC50", "setting": "[4]", "value": 2, "unit": "nM"}
    ]}
  ]
}
